Source: PubChem BioAssay AID330 (DTP/NCI, 2004)
Inconclusive results and toxic doses are left out.

Test system: P388 leukemia ip, CD2F1 mice, survival T/C
Test: NCI In Vivo Anticancer Drug Screen. Data for tumor model P388 Leukemia (intraperitoneal) in CD2F1 (CDF1) mice
Conditions: endpoint: median survival time, higher = longer survival
In short: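 Mice carrying the transplanted tumor received test compound or vehicle. Survival was recorded in each group, and the value is the treated-group measurement divided by that of the vehicle-treated control group.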

[1] = dose: 50.0 mg/kg/injection, schedule: Q01DX005 (ip), vehicle: Klucel (hydroxypropylcellulose) (HPC)
[2] = dose: 100.0 mg/kg/injection, schedule: Q01DX005 (ip), vehicle: Klucel (hydroxypropylcellulose) (HPC)
[3] = dose: 200.0 mg/kg/injection, schedule: Q01DX005 (ip), vehicle: Klucel (hydroxypropylcellulose) (HPC)

Question: Cc1nc(N)[nH]c(=O)c1CCCNc1ccc(C(=O)NC(CCC(=O)O)C(=O)O)cc1 (stereo not drawn) was tested. Which T/C [1] did it give?
Answer: 100 % of control

Question: What about the T/C [2] of the same compound?
Answer: 97 % of control

Question: And the T/C [3]?
Answer: 100 % of control

Question: Nc1c(Br)cc(Br)c2c1C(=O)c1c(cccc1S(=O)(=O)O)C2=O was tested. Which T/C (dose: 50.0 mg/kg/injection, schedule: Q01DX005 (ip), vehicle: saline with Tween-80) did it give?
Answer: 102 % of control

Question: What about the T/C (dose: 100.0 mg/kg/injection, schedule: Q01DX005 (ip), vehicle: saline with Tween-80) of the same compound?
Answer: 98 % of control

Question: What about the T/C (dose: 200.0 mg/kg/injection, schedule: Q01DX005 (ip), vehicle: saline with Tween-80) of the same compound?
Answer: 107 % of control

Question: C[Si](C)(CC[Si](C)(C)OS(C)(=O)=O)OS(C)(=O)=O was tested. Which T/C [1] did it give?
Answer: 101 % of control

Question: And the T/C [2]?
Answer: 99 % of control

Question: And the T/C [3]?
Answer: 89 % of control

Question: With CC(C)[S][Pb]([c]1ccccc1)([c]1ccccc1)[c]1ccccc1 as the compound, how does the T/C (dose: 1.25 mg/kg/injection, schedule: Q01DX009 (ip), vehicle: gum acacia) read?
Answer: 116 % of control

Question: What about the T/C (dose: 2.5 mg/kg/injection, schedule: Q01DX009 (ip), vehicle: gum acacia) of the same compound?
Answer: 118 % of control

Question: And the T/C (dose: 5.0 mg/kg/injection, schedule: Q01DX009 (ip), vehicle: gum acacia)?
Answer: 111 % of control

Question: And the T/C (dose: 6.25 mg/kg/injection, schedule: Q04DX003 (ip), vehicle: gum acacia)?
Answer: 97 % of control

Question: And the T/C (dose: 12.5 mg/kg/injection, schedule: Q04DX003 (ip), vehicle: gum acacia)?
Answer: 104 % of control

Question: For O=C(NO)C1NC1C(=O)NO (stereo not drawn), which T/C (dose: 25.0 mg/kg/injection, schedule: Q01DX009 (ip), vehicle: water) is on record?
Answer: 96 % of control

Question: What about the T/C (dose: 50.0 mg/kg/injection, schedule: Q01DX009 (ip), vehicle: water) of the same compound?
Answer: 109 % of control

Question: What about the T/C (dose: 100.0 mg/kg/injection, schedule: Q01DX001 (ip), vehicle: water) of the same compound?
Answer: 100 % of control

Question: And the T/C (dose: 100.0 mg/kg/injection, schedule: Q01DX009 (ip), vehicle: water)?
Answer: 111 % of control

Question: What about the T/C (dose: 100.0 mg/kg/injection, schedule: Q04DX003 (ip), vehicle: water) of the same compound?
Answer: 115 % of control

Question: And the T/C (dose: 200.0 mg/kg/injection, schedule: Q01DX001 (ip), vehicle: water)?
Answer: 107 % of control

Question: What about the T/C (dose: 200.0 mg/kg/injection, schedule: Q04DX003 (ip), vehicle: water) of the same compound?
Answer: 112 % of control

Question: What about the T/C (dose: 400.0 mg/kg/injection, schedule: Q01DX001 (ip), vehicle: water) of the same compound?
Answer: 100 % of control

Question: What about the T/C (dose: 400.0 mg/kg/injection, schedule: Q04DX003 (ip), vehicle: water) of the same compound?
Answer: 112 % of control

Question: And the T/C (dose: 600.0 mg/kg/injection, schedule: Q01DX001 (ip), vehicle: water)?
Answer: 101 % of control

Question: For COc1ccc([N+](=O)[O-])cc1C[S+](C)C, which T/C (dose: 6.25 mg/kg/injection, schedule: Q01DX009 (ip), vehicle: Klucel (hydroxypropylcellulose) (HPC)) is on record?
Answer: 108 % of control

Question: And the T/C (dose: 12.5 mg/kg/injection, schedule: Q01DX009 (ip), vehicle: Klucel (hydroxypropylcellulose) (HPC))?
Answer: 107 % of control

Question: What about the T/C (dose: 25.0 mg/kg/injection, schedule: Q01DX009 (ip), vehicle: Klucel (hydroxypropylcellulose) (HPC)) of the same compound?
Answer: 112 % of control

Question: How did the T/C [1] turn out when CC(C)C(NC(=O)OC(C)(C)C)C(=O)O (stereo not drawn) was run?
Answer: 102 % of control

Question: And the T/C [2]?
Answer: 104 % of control

Question: And the T/C [3]?
Answer: 93 % of control

Question: N#CC(C#N)=CN(CCO)CCO was tested. Which T/C (dose: 50.0 mg/kg/injection, schedule: Q01DX005 (ip), vehicle: saline) did it give?
Answer: 99 % of control

Question: And the T/C (dose: 100.0 mg/kg/injection, schedule: Q01DX005 (ip), vehicle: saline)?
Answer: 99 % of control

Question: And the T/C (dose: 200.0 mg/kg/injection, schedule: Q01DX005 (ip), vehicle: saline)?
Answer: 97 % of control

Question: What does the source list for Oc1cc2c(cc1C(c1ccc(F)cc1)N1CCOCC1)OCO2 (stereo not drawn)?
Answer: T/C (dose: 60.0 mg/kg/injection, schedule: Q01DX005 (ip), vehicle: saline with Tween-80): 117 % of control; T/C (dose: 120.0 mg/kg/injection, schedule: Q01DX005 (ip), vehicle: saline with Tween-80): 102 % of control; T/C (dose: 240.0 mg/kg/injection, schedule: Q01DX005 (ip), vehicle: saline with Tween-80): 108 % of control

Question: CC(N)C(=O)NC(CC(=O)O)C(=O)O (stereo not drawn) was tested. Which T/C (dose: 12.5 mg/kg/injection, schedule: Q01DX009 (ip), vehicle: saline) did it give?
Answer: 95 % of control

Question: And the T/C (dose: 25.0 mg/kg/injection, schedule: Q01DX009 (ip), vehicle: saline)?
Answer: 86 % of control

Question: And the T/C (dose: 50.0 mg/kg/injection, schedule: Q01DX009 (ip), vehicle: saline)?
Answer: 90 % of control

Question: And the T/C (dose: 100.0 mg/kg/injection, schedule: Q01DX009 (ip), vehicle: saline)?
Answer: 94 % of control

Question: What about the T/C (dose: 200.0 mg/kg/injection, schedule: Q01DX009 (ip), vehicle: saline) of the same compound?
Answer: 92 % of control

Question: Which results are given for CCN1C(N)=NS(=O)(=O)c2ccccc21?
Answer: T/C (dose: 100.0 mg/kg/injection, schedule: Q04DX002 (ip), vehicle: saline with Tween-80): 104 % of control; T/C (dose: 200.0 mg/kg/injection, schedule: Q04DX002 (ip), vehicle: saline with Tween-80): 104 % of control; T/C (dose: 400.0 mg/kg/injection, schedule: Q04DX002 (ip), vehicle: saline with Tween-80): 106 % of control

Question: How did the T/C (dose: 100.0 mg/kg/injection, schedule: Q04DX002 (ip), vehicle: Klucel (hydroxypropylcellulose) (HPC)) turn out when CC(C)C(Br)C(N)=O (stereo not drawn) was run?
Answer: 100 % of control

Question: What about the T/C (dose: 200.0 mg/kg/injection, schedule: Q04DX002 (ip), vehicle: Klucel (hydroxypropylcellulose) (HPC)) of the same compound?
Answer: 103 % of control

Question: What about the T/C (dose: 400.0 mg/kg/injection, schedule: Q04DX002 (ip), vehicle: Klucel (hydroxypropylcellulose) (HPC)) of the same compound?
Answer: 105 % of control

Question: For Cc1nc(N)nc(N)c1N1CCN(c2ccc(C(=O)NC(CCC(=O)O)C(=O)O)cc2)CC1 (stereo not drawn), which T/C (dose: 1.56 mg/kg/injection, schedule: Q01DX005 (ip), vehicle: water) is on record?
Answer: 111 % of control

Question: What about the T/C (dose: 12.5 mg/kg/injection, schedule: Q01DX005 (ip), vehicle: distilled water + Tween-80) of the same compound?
Answer: 168 % of control

Question: And the T/C (dose: 12.5 mg/kg/injection, schedule: Q01DX005 (ip), vehicle: water)?
Answer: 150 % of control

Question: What about the T/C (dose: 25.0 mg/kg/injection, schedule: Q01DX005 (ip), vehicle: distilled water + Tween-80) of the same compound?
Answer: 176 % of control

Question: What about the T/C (dose: 25.0 mg/kg/injection, schedule: Q01DX005 (ip), vehicle: water) of the same compound?
Answer: 176 % of control

Question: What about the T/C (dose: 50.0 mg/kg/injection, schedule: Q01DX005 (ip), vehicle: water) of the same compound?
Answer: 222 % of control

Question: What about the T/C (dose: 100.0 mg/kg/injection, schedule: Q01DX005 (ip), vehicle: distilled water + Tween-80) of the same compound?
Answer: 87 % of control

Question: How did the T/C (dose: 50.0 mg/kg/injection, schedule: Q01DX009 (ip), vehicle: Klucel (hydroxypropylcellulose) (HPC)) turn out when COc1cc(N2C(=O)C(=O)C(C(C)=O)C2=O)c(OC)cc1Cl (stereo not drawn) was run?
Answer: 100 % of control

Question: What about the T/C (dose: 100.0 mg/kg/injection, schedule: Q01DX009 (ip), vehicle: Klucel (hydroxypropylcellulose) (HPC)) of the same compound?
Answer: 99 % of control

Question: What about the T/C (dose: 200.0 mg/kg/injection, schedule: Q01DX009 (ip), vehicle: Klucel (hydroxypropylcellulose) (HPC)) of the same compound?
Answer: 100 % of control

Question: For CCN(CC)Cc1c(C)[nH]c2cc3c(cc2c1=O)CCCC3, which T/C (dose: 60.0 mg/kg/injection, schedule: Q01DX005 (ip), vehicle: Klucel (hydroxypropylcellulose) (HPC)) is on record?
Answer: 98 % of control

Question: What about the T/C (dose: 120.0 mg/kg/injection, schedule: Q01DX005 (ip), vehicle: Klucel (hydroxypropylcellulose) (HPC)) of the same compound?
Answer: 90 % of control

Question: For O=CN(c1ccccc1)c1ccccc1, which T/C (dose: 50.0 mg/kg/injection, schedule: Q01DX009 (ip), vehicle: other) is on record?
Answer: 95 % of control

Question: And the T/C (dose: 50.0 mg/kg/injection, schedule: Q04DX003 (ip), vehicle: saline with Tween-80)?
Answer: 107 % of control

Question: And the T/C (dose: 100.0 mg/kg/injection, schedule: Q01DX009 (ip), vehicle: other)?
Answer: 90 % of control

Question: And the T/C (dose: 100.0 mg/kg/injection, schedule: Q04DX003 (ip), vehicle: other)?
Answer: 91 % of control

Question: What about the T/C (dose: 100.0 mg/kg/injection, schedule: Q04DX003 (ip), vehicle: saline with Tween-80) of the same compound?
Answer: 109 % of control

Question: And the T/C (dose: 200.0 mg/kg/injection, schedule: Q01DX009 (ip), vehicle: other)?
Answer: 90 % of control

Question: And the T/C (dose: 200.0 mg/kg/injection, schedule: Q04DX003 (ip), vehicle: other)?
Answer: 87 % of control

Question: What about the T/C (dose: 200.0 mg/kg/injection, schedule: Q04DX003 (ip), vehicle: saline with Tween-80) of the same compound?
Answer: 110 % of control

Question: What about the T/C (dose: 400.0 mg/kg/injection, schedule: Q01DX009 (ip), vehicle: other) of the same compound?
Answer: 100 % of control

Question: What about the T/C (dose: 400.0 mg/kg/injection, schedule: Q04DX003 (ip), vehicle: other) of the same compound?
Answer: 87 % of control

Question: And the T/C (dose: 400.0 mg/kg/injection, schedule: Q04DX003 (ip), vehicle: saline with Tween-80)?
Answer: 110 % of control

Question: And the T/C (dose: 800.0 mg/kg/injection, schedule: Q04DX003 (ip), vehicle: saline with Tween-80)?
Answer: 97 % of control

Question: Which results are given for COc1ccc(CNCCNCc2ccc(OC)cc2)cc1?
Answer: T/C (dose: 50.0 mg/kg/injection, schedule: Q01DX001 (ip), vehicle: Klucel (hydroxypropylcellulose) (HPC)): 93 % of control; T/C (dose: 100.0 mg/kg/injection, schedule: Q01DX001 (ip), vehicle: Klucel (hydroxypropylcellulose) (HPC)): 93 % of control; T/C (dose: 200.0 mg/kg/injection, schedule: Q01DX001 (ip), vehicle: Klucel (hydroxypropylcellulose) (HPC)): 90 % of control

Question: COc1ccc2c(c1O)Oc1c(O)ccc3c1C(C2)N(C)CC3 (stereo not drawn) was tested. Which T/C (dose: 2.5 mg/kg/injection, schedule: Q01DX005 (ip), vehicle: Klucel (hydroxypropylcellulose) (HPC)) did it give?
Answer: 107 % of control

Question: And the T/C (dose: 5.0 mg/kg/injection, schedule: Q01DX005 (ip), vehicle: Klucel (hydroxypropylcellulose) (HPC))?
Answer: 100 % of control

Question: What about the T/C (dose: 10.0 mg/kg/injection, schedule: Q01DX005 (ip), vehicle: Klucel (hydroxypropylcellulose) (HPC)) of the same compound?
Answer: 102 % of control

Question: And the T/C (dose: 20.0 mg/kg/injection, schedule: Q01DX005 (ip), vehicle: Klucel (hydroxypropylcellulose) (HPC))?
Answer: 100 % of control
